Reference: patent publication US20230322724A1, “HETEROCYCLIC COMPOUNDS AS CBP/EP300 BROMODOMAIN INHIBITORS” (AURIGENE ONCOLOGY LIMITED, priority 2020, published 2023)

The compounds below were run against T1, recombinant CREBBP bromodomain (Homo sapiens, UniProt Q92793) (assay: CBP TR-FRET displacement assay). Conditions: compound at 10 μM.
T1 construct: recombinant CREBBP bromodomain obtained from BPS Bioscience, USA; purchased BPS Bioscience, USA
T1 sequence (Q92793 1085-1192 limits assumed): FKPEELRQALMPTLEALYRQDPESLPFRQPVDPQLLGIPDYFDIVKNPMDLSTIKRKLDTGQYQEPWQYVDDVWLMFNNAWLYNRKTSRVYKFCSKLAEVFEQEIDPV
Assay type: binding
Procedure: The potency of compounds to inhibit CREBBP enzyme was tested in a TR-FRET displacement assay using recombinant CREBBP bromodomain obtained from BPS Bioscience, USA. The assay buffer was 50 mM HEPES (pH 7.5), 50 mM NaCl, 0.008% Brij 35, 0.01% BSA, 1 mM TCEP. 50 nM of CREBBP & 500 nM of Biotinylated ligand was incubated at room temperature for 30 minutes, the reaction was initiated by adding pre-incubated enzyme ligand mixture to the test compounds. After 60 min incubation, the reaction was stopped by the addition of stop mix containing 1 nM of LANCE Europium-anti-6xHis antibody (Perkin Elmer, USA) and 40 nM of Sure Light Allophycocyanin-Streptavidin (Perkin Elmer, USA). Fluorescence emission of the samples at 665 and 615 nm were measured at an excitation of 340 nm and their ratio was plotted against the compound concentrations to generate dose-response curve. The percent inhibition of the test compounds is calculated using the ratio of enzyme activity controls.
elected compounds of the present invention were screened in the above-mentioned assay procedures and IC50 values were determined by fitting the dose-response data to sigmoidal curve fitting equation using Graph pad prism software V7.
With `COc1cc2c(cc1-c1cnn(C)c1)CCCN2c1cccc2[nH]c(=O)c(C)cc12` [Example 188] the inhibition at 10 µM was 25%.
`Cc1cc2c(N3CCc4ccc(-c5cnn(C)c5)cc4C3)cccc2n(C)c1=O` [Example 190] was tested, and the inhibition at 10 µM was 52%.
With `CNC(=O)c1ccc(-c2cc3c(cc2C(F)F)N(c2cc(OC)cc4c2cc(C)c(=O)n4C)CCC3)cn1` [Example 192, 5-(7-(Difluoromethyl)-7′-methoxy-1′,3′-dimethyl-2′-oxo-1′,2′,3,4-tetrahydro-2H-[1,5′-biquinolin]-6-yl)-N-methylpicolinamide] the inhibition at 10 µM was 47%.

Same assay, conditions: dose-response, read-out: IC50 (group A, B, C)
In the case of `Cc1cc2c(N3CCN(C)c4cc(-c5cnn(C)c5)ncc43)cc(O)cc2n(C)c1=O` [Example 145, 7-Hydroxy-1,3-dimethyl-5-(1-methyl-7-(1-methyl-1H-pyrazol-4-yl)-2,3-dihydropyrido[3,4-b]pyrazin-4(1H)-yl)quinolin-2(1H)-one], the IC50 is reported as 51 to 100 nM.
Compound `Cc1cc2c(N3CCN(C)c4cc(-c5cnn(C)c5)ncc43)cc(C#CCO)cc2n(C)c1=O` [Example 155, 7-(3-Hydroxyprop-1-yn-1-yl)-1,3-dimethyl-5-(1-methyl-7-(1-methyl-1H-pyrazol-4-yl)-2,3-dihydropyrido[3,4-b]pyrazin-4(1H)-yl)quinolin-2(1H)-one] has an IC50 of 51 to 100 nM.
`Cc1cc2c(N3CCN(C)c4cc(-c5cnn(C)c5)ncc43)cc(OC3CCOCC3)cc2n(C)c1=O` [Example 158] was tested, and the IC50 was < 50 nM.
For `Cc1cc2c(N3CCN(C)c4cc(-c5cnn(C)c5)[n+]([O-])cc43)cc(N3CCOCC3)cc2n(C)c1=O` [Example 160, 4-(1,3-Dimethyl-7-morpholino-2-oxo-1,2-dihydroquinolin-5-yl)-1-methyl-7-(1-methyl-1H-pyrazol-4-yl)-1,2,3,4-tetrahydropyrido[3,4-b]pyrazine 6-oxide], the IC50 was > 10 nM.
In the case of `Cc1cc2c(N3CCCc4cc(-c5cnn(C)c5)ncc43)cc(N3C[C@H]4C[C@@H]3CO4)cc2n(C)c1=O` [Example 168], the IC50 is reported as < 50 nM.
In the case of `Cc1cc2c(N3CCCc4cc(-c5cnn(C)c5)ncc43)cc(N3CCOCC3)cc2n(C)c1=O` [Example 169], the IC50 is reported as < 50 nM.
`Cc1cc2c(N3CCSc4cc(-c5cnn(C)c5)ncc43)cc(N3CCOCC3)cc2n(C)c1=O` [Example 171] was tested, and the IC50 was < 50 nM.
For `CC(=O)N1CCN(c2cc3c(cc2C(F)F)N(c2cc(N4CCOCC4)cc4c2cc(C)c(=O)n4C)CCC3)CC1` [Example 174, 6-(4-Acetylpiperazin-1-yl)-7-(difluoromethyl)-1′,3′-dimethyl-7′-morpholino-3,4-dihydro-2H-[1,5′-biquinolin]-2′(1′H)-one], the IC50 was 51 to 100 nM.
With `COc1cc(N2CCCc3ccc(C(F)F)cc32)c2cc(C)c(=O)n(C)c2c1` [Example 175] the IC50 was > 10 nM.
`Cc1cc2c(N3CCCc4cc(-c5cnn(C)c5)c(C(F)F)cc43)cc(N3CC[C@@H](O)C3)cc2n(C)c1=O` [Example 177] gave an IC50 of 51 to 100 nM.
With `COc1cc(N2CCCc3ccc(C#N)cc32)c2cc(C)c(=O)n(C)c2c1` [Example 184] the IC50 was > 10 nM.
With `COc1cc(N2CCCc3cc(N4CCN(C(C)=O)CC4)ccc32)c2cc(C)c(=O)n(C)c2c1` [Example 185] the IC50 was > 10 nM.
In the case of `CNC(=O)c1ccc(-c2ccc3c(c2)CCCN3c2cc(OC)cc3c2cc(C)c(=O)n3C)cn1` [Example 186], the IC50 is reported as 51 to 100 nM.
For `CNC(=O)C1CCN(c2ccc3c(c2)CCCN3c2cc(OC)cc3c2cc(C)c(=O)n3C)CC1` [Example 187], the IC50 was > 10 nM.
With `COc1cc(N2CCc3cccc(-c4cnn(C)c4)c3C2)c2cc(C)c(=O)n(C)c2c1` [Example 189] the IC50 was > 10 nM.
For `COc1cc(N2CCc3c(c(-c4cnn(C)c4)nn3C)C2)c2cc(C)c(=O)n(C)c2c1` [Example 191], the IC50 was > 10 nM.
For `Cc1cc2c(N3CCCc4cc(-c5cnn(C)c5)c(C(F)F)cc43)nc(N3CC(O)C(O)C3)cc2n(C)c1=O` (stereo not shown) [Example 213], the IC50 was < 50 nM.
For `CC(=O)NC1CCN(c2cc3c(cc(C)c(=O)n3C)c(N3CCCc4cc(-c5cnn(C)c5)c(C(F)F)cc43)n2)C1` (stereo not shown) [Example 216], the IC50 was < 50 nM.
With `Cc1cc2c(N3CCN(C)c4cc(-c5cnn(C)c5)ncc43)nc(N3C4CCC3COC4)cc2n(C)c1=O` [Example 221] the IC50 was > 10 nM.
`Cc1cc2c(N3CCCc4cc(-c5cnn(C)c5)c(C(F)F)cc43)nc(N3CCC(C)(N)CC3)cc2n(C)c1=O` [Example 222] was tested, and the IC50 was < 50 nM.
With `Cc1cc2c(N3CCCc4cc(-c5cnn(C)c5)c(C(F)F)cc43)nc(N3CCN(C)CC3)cc2n(C)c1=O` [Example 223] the IC50 was < 50 nM.
`Cc1cc2c(N3CCCc4cc(C5CCCO5)c(C(F)F)cc43)nc(N3CC[C@@H](O)C3)cc2n(C)c1=O` (stereo partly shown) [Example 227] gave an IC50 of 51 to 100 nM.
`Cc1cc2c(N3CCCc4cc(C5CCOC5)c(C(F)F)cc43)nc(N3CC[C@@H](O)C3)cc2n(C)c1=O` (stereo partly shown) [Example 228] was tested, and the IC50 was < 50 nM.
In the case of `COc1cc2c(cc1-c1cnn(C)c1)CCCN2c1nc(N2CCC(O)C2)cc2c1cc(C)c(=O)n2C` (stereo not shown) [Example 232], the IC50 is reported as 51 to 100 nM.
`Cc1cc2c(N3CCCc4cc(-c5cccn(C)c5=O)c(C(F)F)cc43)nc(C3CCOCC3)cc2n(C)c1=O` [Example 235, 5-(7-(difluoromethyl)-6-(1-methyl-2-oxo-1,2-dihydropyridin-3-yl)-3,4-dihydroquinolin-1(2H)-yl)-1,3-dimethyl-7-(tetrahydro-2H-pyran-4-yl)-1,6-naphthyridin-2(1H)-one] was tested, and the IC50 was < 50 nM.
With `Cc1cc2c(N3CCCc4cc(N5CC(C)NC(C)C5)c(C(F)F)cc43)nc(C3CCOCC3)cc2n(C)c1=O` (stereo not shown) [Example 236] the IC50 was < 50 nM.
In the case of `Cc1cc2c(N3CCCc4cc(N5CCC(C)(N)CC5)c(C(F)F)cc43)nc(C3CCOCC3)cc2n(C)c1=O` [Example 237], the IC50 is reported as < 50 nM.
For `COc1cc2c(cc1-c1cnn(C)c1)CCCN2c1nc(C2CCOCC2)cc2c1cc(C)c(=O)n2C` [Example 238], the IC50 was < 50 nM.
With `COc1cc2c(cc1-c1cnn(C)c1)C(C)CCN2c1nc(C2CCOCC2)cc2c1cc(C)c(=O)n2C` (stereo not shown) [Example 239] the IC50 was 51 to 100 nM.
With `Cc1cc2c(N3CCCc4cc(-c5cnn(C)c5)c(O)cc43)nc(C3CCOCC3)cc2n(C)c1=O` [Example 244, 5-(7-Hydroxy-6-(1-methyl-1H-pyrazol-4-yl)-3,4-dihydroquinolin-1(2H)-yl)-1,3-dimethyl-7-(tetrahydro-2H-pyran-4-yl)-1,6-naphthyridin-2(1H)-one] the IC50 was < 50 nM.
For `COc1cc2c(cc1-c1cnn(C)c1)CCCN2c1nc(N2CCC(S(N)(=O)=O)C2)cc2c1cc(C)c(=O)n2C` (stereo not shown) [Example 246, 1-(5-(7-Methoxy-6-(1-methyl-1H-pyrazol-4-yl)-3,4-dihydroquinolin-1(2H)-yl)-1,3-dimethyl-2-oxo-1,2-dihydro-1,6-naphthyridin-7-yl)pyrrolidine-3-sulfonamide], the IC50 was 51 to 100 nM.
